This is an account of results in US20190284220A1, “CRYSTAL FORM OF DAPAGLIFLOZIN INTERMEDIATE AND PREPARATION METHOD THEREFOR” (Jiangsu Hansoh Pharmaceutical Group Co., Ltd., priority 2016, published 2019).

The data set can be described thus: Stability study of crystal form A. The data set is classed as physicochemical. As to conditions: for Crystal form / Purity: 25° C. An excerpt: Experimental Example 1 Stability Study

With `CCOc1ccc(Cc2cc([C@]3(OCC)O[C@H](CO)[C@@H](O)[C@H](O)[C@H]3O)ccc2Cl)cc1` [crystal form A, (2S,3R,4S,5S,6R)-2-(4-chloro-3-(4-ethoxybenzyl)phenyl)-2-ethoxy-6-(methylhydroxy)tetrahydro-2H-pyran-3,4,5-triol], the Crystal form result (0 day) is “Crystal form A”, the Crystal form result (1 month) is “Crystal form A” and the Crystal form entry (3 months) was “Crystal form A”. For the same compound, the Purity is, setting by setting: (0 day) 99.45%; (1 month) 99.41%; (3 months) 99.43%. Besides, the “Crystal form after drying” value (dried under vacuum at 50° C. for 3 hours) is given as “not changed”. In addition, for the setting “room temperature (25° C.), 3 months”, the “Crystal form after storage” value is on record as “not changed”.
